Results from EP4606801A1, “FUSED HETEROCYCLIC COMPOUND AND USE THEREOF” (Chengdu Zenitar Biomedical Technology Co., Ltd., priority 2022, dated 2024).
pIC50: −log10 of the molar value.

Experiments:
breast cancer MDA-MB-436 [1] = test system: breast cancer MDA-MB-436; set-up: species or system NOD/SCID mice; conditions: mouse, in vivo
breast cancer MDA-MB-436 [2] = assay: In-vivo pharmacodynamic study on subcutaneous xenograft tumor model of breast cancer MDA-MB-436; set-up: species or system NOD/SCID mice; conditions: for RTV / Tumor volume T/C% / Tumor weight (g) X±SD / Body weight (g) X±SD End / Tumor volume (mm^3) X±SD End: 24 days
in vivo = conditions: male, SD, rat, po
Protocol: Experimental procedure: The compound, a small amount of DMSO and a sodium chloride injection were added to prepare the final solution for administration. The compound was orally administered to 6 male SD rats. […] The supernatant was collected and transferred into a sample vial for assay. Range of standard curve: 10 - 10,000 ng·mL^-1.

PARP2 = biological target: T1, PARP2 (Homo sapiens, UniProt Q9UGN5); assay: Determination of PARP2 enzyme (histone-coated plate, Biotin-NAD+); assay type: biochemical
T1 construct: purchased BPS 80502
T1 sequence (Q9UGN5 whole entry): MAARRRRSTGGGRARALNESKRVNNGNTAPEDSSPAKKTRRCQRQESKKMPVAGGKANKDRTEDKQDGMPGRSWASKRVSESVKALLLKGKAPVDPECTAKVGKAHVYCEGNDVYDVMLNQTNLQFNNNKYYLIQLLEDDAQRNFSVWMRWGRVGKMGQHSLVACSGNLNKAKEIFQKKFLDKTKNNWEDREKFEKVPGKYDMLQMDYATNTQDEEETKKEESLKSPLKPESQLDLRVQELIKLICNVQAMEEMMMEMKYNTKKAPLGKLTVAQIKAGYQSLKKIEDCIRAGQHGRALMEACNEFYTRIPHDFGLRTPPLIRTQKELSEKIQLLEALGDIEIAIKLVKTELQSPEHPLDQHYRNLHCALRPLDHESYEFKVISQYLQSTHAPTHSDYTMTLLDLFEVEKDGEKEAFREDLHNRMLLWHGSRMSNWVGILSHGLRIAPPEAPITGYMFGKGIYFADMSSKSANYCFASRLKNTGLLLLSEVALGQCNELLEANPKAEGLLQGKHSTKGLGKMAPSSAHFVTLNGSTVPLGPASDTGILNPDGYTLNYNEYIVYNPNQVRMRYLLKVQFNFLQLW
Protocol: • 1.2.1 Preparation of buffer solution: PBST: 1x PBS, 0.05% Tween-20; blocking solution: 1x PBS, 0.05% Tween-20, 5% BSA; reaction buffer solution: 50 mM HEPES (pH 7.5), 0.002% Tween-20, 0.1% BSA, 100 mM NaCl, 2mM DTT. • 1.2.2 Coating: A 100 ng/mL Histone coating solution was prepared by using 1x PBS, 25 uL of the coating solution was transferred to a 384-well reaction plate, and the reaction plate was coated overnight at 4°C. • 1.2.3 Washing: After the coating was completed, the coating solution was discarded, and the reaction plate was washed with the PBST solution by means of transferring 50uL of the PBST solution to the 384-well reaction plate, letting it stand for 5 min, discarding the washing solution, refilling the reaction plate, and repeating the washing process 3 times. Finally, the reaction plate was tapped dry and the next step of blocking was proceeded with. • 1.2.4 Blocking: 50 uL of the blocking solution was transferred to the 384-well reaction plate and set for 1 h. • 1.2.5 Washing: After the blocking was completed, the blocking solution was discarded, the reaction plate was washed 3 times with the PBST solution according to the method in Step 2, and the reaction plate was tapped dry. • 1.2.6 A 25/10× PARP2 solution was prepared, then 10 µL of the PARP2 solution was transferred to the 384-well reaction plate.

**Q.** For `[2H]C([2H])([2H])C([2H])([2H])c1cc2ncc(CN3CC=C(c4ccc(C(=O)NC)nc4)CC3)cc2[nH]c1=O` [Compound 6, 1'-((7-(ethyl-d5)-6-oxo-5,6-dihydro-1,5-naphthyridin-3-yl)methyl)-N-methyl-1',2',3',6'-tetrahy dro-[3,4'-bipyridine]-6-carboxamide], which “anti-tumor efficacy in the model of large-volume tumors” value (breast cancer MDA-MB-436 [1]) is on record?
**A.** complete regression of tumors

**Q.** And the “rate of tumor regression compared to the compounds 1 and 21” value (breast cancer MDA-MB-436 [1])?
**A.** faster rate of tumor regression

**Q.** And the RTV (breast cancer MDA-MB-436 [2]; 0.03 mg/kg orally once daily)?
**A.** 2.7

**Q.** And the “Tumor volume T/C%” value (breast cancer MDA-MB-436 [2]; 0.03 mg/kg orally once daily)?
**A.** 40.8%

**Q.** And the “Tumor weight (g) X±SD” value (breast cancer MDA-MB-436 [2]; 0.03 mg/kg orally once daily)?
**A.** 1.09 ± 0.29 g

**Q.** What about the “Body weight (g) X±SD End” value (breast cancer MDA-MB-436 [2]; 0.03 mg/kg orally once daily) of the same molecule?
**A.** 21.6 ± 0.7 g

**Q.** And the “Tumor volume (mm^3) X±SD End” value (breast cancer MDA-MB-436 [2]; 0.03 mg/kg orally once daily)?
**A.** 739.4±308.7 mm^3

**Q.** What about the “Body weight (g) X±SD Start” value (breast cancer MDA-MB-436 [2]; 0.03 mg/kg orally once daily) of the same molecule?
**A.** 22.6 ± 0.7 g

**Q.** What about the “Tumor volume (mm^3) X±SD Start” value (breast cancer MDA-MB-436 [2]; 0.03 mg/kg orally once daily) of the same molecule?
**A.** 275.0±68.1 mm^3

**Q.** What about the RTV (breast cancer MDA-MB-436 [2]; 0.1 mg/kg orally once daily) of the same molecule?
**A.** 0.8

**Q.** What about the “Tumor volume T/C%” value (breast cancer MDA-MB-436 [2]; 0.1 mg/kg orally once daily) of the same molecule?
**A.** 12.6%

**Q.** And the “Tumor weight (g) X±SD” value (breast cancer MDA-MB-436 [2]; 0.1 mg/kg orally once daily)?
**A.** 0.29 ± 0.09 g

**Q.** What about the “Body weight (g) X±SD End” value (breast cancer MDA-MB-436 [2]; 0.1 mg/kg orally once daily) of the same molecule?
**A.** 21.6 ± 0.7 g

**Q.** What about the “Tumor volume (mm^3) X±SD End” value (breast cancer MDA-MB-436 [2]; 0.1 mg/kg orally once daily) of the same molecule?
**A.** 228.0±75.9 mm^3

**Q.** What about the “Body weight (g) X±SD Start” value (breast cancer MDA-MB-436 [2]; 0.1 mg/kg orally once daily) of the same molecule?
**A.** 22.3 ± 1.0 g

**Q.** What about the “Tumor volume (mm^3) X±SD Start” value (breast cancer MDA-MB-436 [2]; 0.1 mg/kg orally once daily) of the same molecule?
**A.** 274.7±73.8 mm^3

**Q.** What about the RTV (breast cancer MDA-MB-436 [2]; 0.3 mg/kg orally once daily) of the same molecule?
**A.** 0.3

**Q.** And the “Tumor volume T/C%” value (breast cancer MDA-MB-436 [2]; 0.3 mg/kg orally once daily)?
**A.** 3.8%

**Q.** What about the “Tumor weight (g) X±SD” value (breast cancer MDA-MB-436 [2]; 0.3 mg/kg orally once daily) of the same molecule?
**A.** 0.09 ± 0.08 g

**Q.** And the “complete tumor regression (mice out of 6)” value (breast cancer MDA-MB-436 [2]; 0.3 mg/kg orally once daily, at the end of treatment)?
**A.** 2/6

**Q.** What about the “Body weight (g) X±SD End” value (breast cancer MDA-MB-436 [2]; 0.3 mg/kg orally once daily) of the same molecule?
**A.** 22.0 ± 0.9 g

**Q.** What about the “Tumor volume (mm^3) X±SD End” value (breast cancer MDA-MB-436 [2]; 0.3 mg/kg orally once daily) of the same molecule?
**A.** 71.0±62.5 mm^3

**Q.** What about the “Body weight (g) X±SD Start” value (breast cancer MDA-MB-436 [2]; 0.3 mg/kg orally once daily) of the same molecule?
**A.** 22.3 ± 0.8 g

**Q.** What about the “Tumor volume (mm^3) X±SD Start” value (breast cancer MDA-MB-436 [2]; 0.3 mg/kg orally once daily) of the same molecule?
**A.** 281.9±67.4 mm^3

**Q.** What about the half-life (in vivo) of the same molecule?
**A.** 8.4 h

**Q.** What about the pIC50 (PARP2) of the same molecule?
**A.** < 6.00
